# Laboratory results reported in patent publication US8518875B2, “(Carboxylalkylenephenyl)phenyloxamides, method for the production thereof and use of same as a medicament” (SANOFI, priority 2007, dated 2013).
# Molecular target: T1, GPCR GPR40 (Homo sapiens, UniProt O14842)
# T1 construct: expressed in transfected cells; host or cells: HEK293
# Test: In-vitro FLIPR assay with recombinant cells which express the GPCR GPR40
# Format: cell-based
# Conditions: intracellular Ca2+ in recombinant HEK293 cells expressing GPR40, 100% = 10 μM linoleic acid
# Method: In-Vitro FLIPR Assay with Recombinant Cells which Express the GPCR GPR40
# Function-testing assays were carried out by means of the FLIPR technique (“fluorescence imaging plate reader”, Molecular Devices Corp.). For this purpose, agonist-induced alterations in the intracellular concentration of Ca^2+ in recombinant HEK293 cells which express the GPCR GPR40 were determined.
# For the investigations, cells were seeded in 96-well microtiter plates (60 000 cells/well) and left to grow overnight. The medium was removed and the cells were incubated in buffer which contained the fluorescent dye Fluo-4. After this loading with dye, the cells were washed, test substance was added and alterations in the intracellular Ca^2+ concentration were measured in the FLIPR instrument. Results have been depicted as percentage alteration relative to the control (0%: no test substance added; 100%: 10 μM reference agonist linoleic acid added) used to calculate dose/activity plots and EC50 values were determined.
# T1 sequence (O14842 whole entry): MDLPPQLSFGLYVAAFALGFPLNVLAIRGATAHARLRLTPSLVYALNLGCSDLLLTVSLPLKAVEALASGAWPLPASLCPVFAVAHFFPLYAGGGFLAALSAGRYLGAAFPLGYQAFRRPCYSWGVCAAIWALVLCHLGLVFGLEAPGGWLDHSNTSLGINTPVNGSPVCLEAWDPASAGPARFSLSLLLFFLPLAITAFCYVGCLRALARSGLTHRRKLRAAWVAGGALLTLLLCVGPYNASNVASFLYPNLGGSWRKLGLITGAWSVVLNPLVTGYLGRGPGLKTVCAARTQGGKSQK
structure (smiles),measurement,value
O=C(O)CCc1cccc(NC(=O)C(=O)Nc2c(Cl)c(Cl)cc(Cl)c2Cl)c1 [compound 24],EC50,60100 nM
CC(C)c1ccc(NC(=O)C(=O)Nc2ccc(CCC(=O)O)cc2)c(C(F)(F)F)c1 [compound 9],EC50,100 nM
O=C(O)CCc1ccc(NC(=O)C(=O)Nc2ccc(Br)cc2Cl)cc1 [compound 14],EC50,600 nM
O=C(O)CCc1ccc(NC(=O)C(=O)Nc2cc(C(F)(F)F)ccc2Br)cc1 [compound 11],EC50,800 nM
O=C(O)CCc1ccc(NC(=O)C(=O)Nc2ccc(Cl)cc2Cl)cc1 [compound 7],EC50,700 nM
CC(C)c1ccc(NC(=O)C(=O)Nc2cccc(CCC(=O)O)c2)c(Br)c1 [compound 21],EC50,16800 nM
